Results published in patent publication US20080293696A1, “2-Aminoarylcarboxamides Useful as Cancer Chemotherapeutic Agents” (Bayer Pharmaceuticals Corporation, priority 2004, published 2008).
pIC50: −log10 of the molar value. Structures can show the parent of a compound that is named as a salt.

Each compound was assayed on PAKT/PKB (p-(S473) AKT) in H209 small cell lung carcinoma cells stimulated with Stem Cell Factor (assay: PAKT/PKB Cytoblot Assay with H209 cells (SCF-stimulated p-(S473) AKT)). Settings: Homo sapiens, NCI-H209, compound 1 hour, SCF 25 ng/mL 5 minutes, group: between 500 nM and 1 μM (units in value).
Assay type: cell-based
Description: PAKT/PKB Cytoblot Assay Protocol with H209 Cells
H209 small cell lung carcinoma cells in log phase were plated at 50,000 cells/well in 96-well poly-lysine coated, clear bottom/black-sided plates (BD Cat # 354640) in 100 μl RPMI medium containing 0.1% (w/v) BSA, and incubated overnight at 37° C. in 5% CO2 incubator. The following day, compounds (10 mM stock solutions in DMSO) were added to the plates to generate final concentrations of 0.0, 0.01, 0.03, 0.1, 0.3, 1.0, 3.0 and 10 μM for IC50 determinations and incubated for 1 hour at 37° C. Cells were then left untreated or stimulated with Stem Cell Factor (SCF: Biosource Cat # PHC2116) at a final concentration of 25 ng/mL for 5 minutes at 37° C. in 5% CO2 incubator. The media was then removed using a vacuum manifold and the cells were washed once with Tris Buffered Saline (TBS).
Cells were then fixed by adding 200 μl of cold 3.7% (v/v) formaldehyde in TBS to each well for 15 minutes at 4° C. After removal of the formaldehyde, the cells were treated with the addition of 50 μl of methanol (at −20° C.) to each well for 5 minutes. After removal of the methanol, […] of 1% (w/v) BSA in TBS was added to each well to block non-specific antibody binding sites and the plate was incubated at room temperature for 30 minutes.
After removal of the blocking buffer, 50 μl of p-(S473) AKT rabbit polyclonal antibody (Cell Signaling Cat # 9277S) was added at a dilution of 1:250 in 0.1% (w/v) BSA in TBS, and the plate was incubated at room temperature for 1 hour. Plates were then washed 3 times with cold TBS containing 0.05% (v/v) Tween 20 (TBS-T) and […] of Horseradish peroxidase (HRP)-conjugated goat-anti-rabbit antibody (Amersham Cat # NA934V) at a dilution of 1:250 in TBS-T was added and the plate was incubated at room temperature for 1 h. After washing with ice-cold TBS-T four times, 100 μl of Enhanced Chemiluminescence (ECL) reagent (Amersham Cat# RPN2209) was added to each well and mixed on a mini-orbital shaker for 1 min. The plate was then read on a Perkin Elmer Victor 5 Multilabel Counter (#1420-0421).

SMILES	pIC50
CCCCN(CCCC)CCCNC(=O)c1cc(CNc2ccccc2C(=O)Nc2ccc3c(c2)OC(F)(F)O3)ccn1 [Example 105, N-[3-(dibutylamino)propyl]-4-{[(2-{[(2,2-difluoro-1,3-benzodioxol-5-yl)amino]carbonyl}phenyl)amino]methyl}pyridine-2-carboxamide]	6.00 to 6.30
O=C(Nc1ccc2c(c1)C(F)(F)OC(F)(F)O2)c1ccccc1NCc1ccnc(C2=NCCN2)c1 [Example 40, 2-({[2-(4,5-dihydro-1H-imidazol-2-yl)pyridin-4-yl]methyl}amino)-N-(2,2,4,4-tetrafluoro-4H-1,3-benzodioxin-6-yl)benzamide]	6.00 to 6.30
O=C(Nc1ccc2c(c1)OC(F)(F)O2)c1ccccc1NCc1ccnc(CO)c1 [Example 177, N-(2,2-difluoro-1,3-benzodioxol-5-yl)-2-({[2-(hydroxymethyl)pyridin-4-yl]methyl}amino)benzamide]	6.00 to 6.30
O=C(NCCc1cnc[nH]1)c1cc(CNc2ccccc2C(=O)Nc2ccc3c(c2)OC(F)(F)O3)ccn1 [Example 94, 4-{[(2-{[(2,2-difluoro-1,3-benzodioxol-5-yl)amino]carbonyl}phenyl)amino]methyl}-N-[2-(1H-imidazol-5-yl)ethyl]pyridine-2-carboxamide]	6.00 to 6.30
COc1cccc(C(=O)Nc2ccc3c(c2)C(F)(F)OC(F)(F)O3)c1NCc1ccncc1 [Example 8, 3-methoxy-2-[(pyridin-4-ylmethyl)amino]-N-(2,2,4,4-tetrafluoro-4H-1,3-benzodioxin-6-yl)benzamide]	6.00 to 6.30

Same assay, conditions: Homo sapiens, NCI-H209, compound 1 hour, SCF 25 ng/mL 5 minutes, group: between 1 and 3 μM

SMILES	pIC50
COc1ccc(NCc2ccncc2)c(C(=O)Nc2ccc3c(c2)OC(F)(F)C(F)(F)O3)c1 [Example 1, 5-methoxy-2-[(pyridin-4-ylmethyl)amino]-N-(2,2,3,3-tetrafluoro-2,3-dihydro-1,4-benzodioxin-6-yl)benzamide]	5.52 to 6.00
O=C(NCCc1c[nH]c2ccccc12)c1cc(CNc2ccccc2C(=O)Nc2ccc3c(c2)OC(F)(F)O3)ccn1 [Example 102, 4-{[(2-{[(2,2-difluoro-1,3-benzodioxol-5-yl)amino]carbonyl}phenyl)amino]methyl}-N-[2-(1H-indol-3-yl)ethyl]pyridine-2-carboxamide]	5.52 to 6.00
Cc1cccc(CNC(=O)Nc2cc(CNc3ccccc3C(=O)Nc3ccc4c(c3)OC(F)(F)O4)ccn2)c1 [Example 171, N-(2,2-difluoro-1,3-benzodioxol-5-yl)-2-({[2-({[(3-methylbenzyl)amino]carbonyl}amino)pyridin-4-yl]methyl}amino)benzamide]	5.52 to 6.00

Same assay, conditions: Homo sapiens, NCI-H209, compound 1 hour, SCF 25 ng/mL 5 minutes, group: less than 500 nM

SMILES	pIC50
CN1CCCC1CCNC(=O)c1cc(CNc2ccccc2C(=O)Nc2ccc3c(c2)OC(F)(F)O3)ccn1 (centres unmarked) [Example 117, 4-{[(2-{[(2,2-difluoro-1,3-benzodioxol-5-yl)amino]carbonyl}phenyl)amino]methyl}-N-[2-(1-methylpyrrolidin-2-yl)ethyl]pyridine-2-carboxamide]	> 6.30
N#Cc1cc(CNc2ccc(F)cc2C(=O)Nc2ccc3c(c2)OC(F)(F)O3)ccn1 [Example 30, 2-{[(2-cyanopyridin-4-yl)methyl]amino}-N-(2,2-difluoro-1,3-benzodioxol-5-yl)-5-fluorobenzamide]	> 6.30
O=C(Nc1ccc2c(c1)OC(F)(F)O2)c1ccccc1NCc1ccnc(NCCCn2ccnc2)c1 [Example 146, N-(2,2-difluoro-1,3-benzodioxol-5-yl)-2-{[(2-{[3-(1H-imidazol-1-yl)propyl]amino}pyridin-4-yl)methyl]amino}benzamidebis(trifluoroacetate)]	> 6.30
O=C(Nc1ccc2c(c1)OC(F)(F)O2)c1ccccc1NCc1ccnc(NCC(O)CO)c1 (centres unmarked) [Example 149, N-(2,2-difluoro-1,3-benzodioxol-5-yl)-2-[({2-[(2,3-dihydroxypropyl)amino]pyridin-4-yl}methyl)amino]benzamidetrifluoroacetate (salt)]	> 6.30
COCCCNc1cc(CNc2ccccc2C(=O)Nc2ccc3c(c2)OC(F)(F)O3)ccn1 [Example 136, N-(2,2-difluoro-1,3-benzodioxol-5-yl)-2-[({2-[(3-methoxypropyl)amino]pyridin-4-yl}methyl)amino]benzamide trifluoroacetate]	> 6.30
CCNC(=O)c1cc(CNc2ccccc2C(=O)Nc2ccc3c(c2)OC(F)(F)O3)ccn1 [Example 45, 4-{[(2-{[(2,2-difluoro-1,3-benzodioxol-5-yl)amino]carbonyl}phenyl)amino]methyl}-N-ethylpyridine-2-carboxamide]	> 6.30
CC(C)OCCCNc1cc(CNc2ccccc2C(=O)Nc2ccc3c(c2)OC(F)(F)O3)ccn1 [Example 140, N-(2,2-difluoro-1,3-benzodioxol-5-yl)-2-[({2-[(3-isopropoxypropyl)amino]pyridin-4-yl}methyl)amino]benzamide trifluoroacetate]	> 6.30
O=C(Nc1ccc2c(c1)OC(F)(F)O2)c1ccccc1NCc1ccncc1 [Example 5, N-(2,2-difluoro-1,3-benzodioxol-5-yl)-2-[(pyridin-4-ylmethyl)amino]benzamide]	> 6.30
CC(C)OCCCNC(=O)c1cc(CNc2ccccc2C(=O)Nc2ccc3c(c2)OC(F)(F)O3)ccn1 [Example 111, 4-{[(2-{[(2,2-difluoro-1,3-benzodioxol-5-yl)amino]carbonyl}phenyl)amino]methyl}-N-(3-isopropoxypropyl)pyridine-2-carboxamide]	> 6.30
CCNC(=O)c1cc(CNc2cc(F)ccc2C(=O)Nc2ccc3c(c2)OC(F)(F)O3)ccn1 [Example 47, 4-{[(2-{[(2,2-difluoro-1,3-benzodioxol-5-yl)amino]carbonyl}-5-fluorophenyl)amino]methyl}-N-ethylpyridine-2-carboxamide]	> 6.30
N#Cc1cc(CNc2cc(F)ccc2C(=O)Nc2ccc3c(c2)OC(F)(F)O3)ccn1 [Example 29, 2-{[(2-cyanopyridin-4-yl)methyl]amino}-N-(2,2-difluoro-1,3-benzodioxol-5-yl)-4-fluorobenzamide]	> 6.30
CNC(=O)c1cc(CNc2ccccc2C(=O)Nc2ccc3c(c2)OC(F)(F)C(F)(F)O3)ccn1 [Example 3, N-methyl-4-{[(2-{[(2,2,3,3-tetrafluoro-2,3-dihydro-1,4-benzodioxin-6-yl)amino]carbonyl}phenyl)amino]methyl}pyridine-2-carboxamide]	> 6.30
CN(C)CCNC(=O)c1cc(CNc2ccccc2C(=O)Nc2ccc3c(c2)OC(F)(F)O3)ccn1 [Example 85, 4-{[(2-{[(2,2-difluoro-1,3-benzodioxol-5-yl)amino]carbonyl}phenyl)amino]methyl}-N-[2-(dimethylamino)ethyl]pyridine-2-carboxamide]	> 6.30
COCC(=O)Nc1cc(CNc2ccccc2C(=O)Nc2ccc3c(c2)OC(F)(F)O3)ccn1 [Example 155, N-(2,2-difluoro-1,3-benzodioxol-5-yl)-2-[({2-[(methoxyacetyl)amino]pyridin-4-yl}methyl)amino]benzamide]	> 6.30
Cc1csc(Nc2cc(CNc3ccccc3C(=O)Nc3ccc4c(c3)OC(F)(F)O4)ccn2)n1 [Example 176, N-(2,2-difluoro-1,3-benzodioxol-5-yl)-2-[({2-[(4-methyl-1,3-thiazol-2-yl)amino]pyridin-4-yl}methyl)amino]benzamide]	> 6.30
CNC(=O)c1cc(CNc2cc(F)ccc2C(=O)Nc2ccc3c(c2)OC(F)(F)C(F)(F)O3)ccn1 [Example 32, 4-{[(5-fluoro-2-{[(2,2,3,3-tetrafluoro-2,3-dihydro-1,4-benzodioxin-6-yl)amino]carbonyl}phenyl)amino]methyl}-N-methylpyridine-2-carboxamide]	> 6.30
COc1ccc(OCC(O)CNC(=O)c2cc(CNc3ccccc3C(=O)Nc3ccc4c(c3)OC(F)(F)O4)ccn2)cc1 (centres unmarked) [Example 132, 4-{[(2-{[(2,2-difluoro-1,3-benzodioxol-5-yl)amino]carbonyl}phenyl)amino]methyl}-N-[2-hydroxy-3-(4-methoxyphenoxy)propyl]pyridine-2-carboxamide]	> 6.30
O=C(NCCc1ccccn1)c1cc(CNc2ccccc2C(=O)Nc2ccc3c(c2)OC(F)(F)O3)ccn1 [Example 120, 4-{[(2-{[(2,2-difluoro-1,3-benzodioxol-5-yl)amino]carbonyl}phenyl)amino]methyl}-N-(2-pyridin-2-ylethyl)pyridine-2-carboxamide]	> 6.30
